“Also recorded” adds a separate entry of the source. Marks after values point to notes of the source that are not given here.
Assay: Solubility assessment and polymorph screen on Sample 1 (Form 1) of RAD1901-2HCl in 24 solvent systems
Format: physicochemical
Conditions: 25 mg Sample 1; 10 vol. solvent (solvent per sample ID); stirred 25° C., shaken 50° C.
Protocol: Solubility assessment was carried out on the Sample 1 of RAD1901-2HCl (majorly Form 1 shown by XRPD) in 24 solvent systems in HPLC vials (sample IDs: A1 to A24). RAD1901-2HCl (25 mg) was treated with increasing volumes of solvent until the material fully dissolved or until a maximum of 60 vol had been used (Table 13).
After each addition of solvent, the system was stirred for 5 to 10 minutes at 25° C., then shaken at 50° C. for 5 to 10 minutes, and observations made. Samples were allowed to stand at room temperature for 5 min before the addition of a new aliquot of solvent. After the assessment was completed, the suspensions obtained were matured (maturation) and the clear solutions were cooled (cooling) and slowly evaporated (evaporation) as described below. All solids recovered from maturation, cooling and evaporation experiments were analyzed by high resolution XRPD.
The suspensions obtained during the solubility assessment were matured by shaken in a maturation chamber between 50° C. and RT (8 hr per cycle) for up to 5 days. Then the mixture was allowed to stand at room temperature for 10 minutes. The resulting solids were filtered and air dried and analyzed by XRPD. The clear solutions obtained during maturation were evaporated in ambient conditions and the resulting residues were analyzed by XRPD.
The clear solutions obtained during the course of the solubility assessment were cooled on a Polar Bear device from 50° C. to 5° C. at 0.1° C./min. Solids obtained upon cooling were recovered from the vials, air dried and analyzed by XRPD. If no solid was obtained, the solutions were evaporated slowly through a needle inserted into the septum cap of the vial until a solid appeared at ambient conditions and the resulting solids were filtered, air dried and analyzed by XRPD.

Row | SMILES | Solubility observation at 10 vol.
1 | CCNCCc1ccc(CN(CC)c2cc(OC)ccc2[C@@H]2CCc3cc(O)ccc3C2)cc1.Cl.Cl [Form A12] | +/− (+/− = nearly dissolved)
2 | CCNCCc1ccc(CN(CC)c2cc(OC)ccc2[C@@H]2CCc3cc(O)ccc3C2)cc1.Cl.Cl [Form A13] | X (X = suspension)
3 | CCNCCc1ccc(CN(CC)c2cc(OC)ccc2[C@@H]2CCc3cc(O)ccc3C2)cc1.Cl.Cl [Form A14] | X (X = suspension)
4 | CCNCCc1ccc(CN(CC)c2cc(OC)ccc2[C@@H]2CCc3cc(O)ccc3C2)cc1.Cl.Cl [Form A15] | X (X = suspension)
5 | CCNCCc1ccc(CN(CC)c2cc(OC)ccc2[C@@H]2CCc3cc(O)ccc3C2)cc1.Cl.Cl [Form A17] | X (X = suspension)
6 | CCNCCc1ccc(CN(CC)c2cc(OC)ccc2[C@@H]2CCc3cc(O)ccc3C2)cc1.Cl.Cl [Form A19] | X (X = suspension)
7 | CCNCCc1ccc(CN(CC)c2cc(OC)ccc2[C@@H]2CCc3cc(O)ccc3C2)cc1.Cl.Cl [Form A20] | +/− (+/− = nearly dissolved)
8 | CCNCCc1ccc(CN(CC)c2cc(OC)ccc2[C@@H]2CCc3cc(O)ccc3C2)cc1.Cl.Cl [Form A22] | +/− (+/− = nearly dissolved)
9 | CCNCCc1ccc(CN(CC)c2cc(OC)ccc2[C@@H]2CCc3cc(O)ccc3C2)cc1.Cl.Cl [Form A23] | X (X = suspension)
10 | CCNCCc1ccc(CN(CC)c2cc(OC)ccc2[C@@H]2CCc3cc(O)ccc3C2)cc1.Cl.Cl [Form A24] | X (X = suspension)

Same assay, conditions: 20 vol. solvent (solvent per sample ID)

Row | SMILES | Solubility observation at 20 vol.
11 | CCNCCc1ccc(CN(CC)c2cc(OC)ccc2[C@@H]2CCc3cc(O)ccc3C2)cc1.Cl.Cl [Form A12] | S (S = solution)
12 | CCNCCc1ccc(CN(CC)c2cc(OC)ccc2[C@@H]2CCc3cc(O)ccc3C2)cc1.Cl.Cl [Form A13] | X (X = suspension)
13 | CCNCCc1ccc(CN(CC)c2cc(OC)ccc2[C@@H]2CCc3cc(O)ccc3C2)cc1.Cl.Cl [Form A14] | X (X = suspension)
14 | CCNCCc1ccc(CN(CC)c2cc(OC)ccc2[C@@H]2CCc3cc(O)ccc3C2)cc1.Cl.Cl [Form A15] | X (X = suspension)
15 | CCNCCc1ccc(CN(CC)c2cc(OC)ccc2[C@@H]2CCc3cc(O)ccc3C2)cc1.Cl.Cl [Form A17] | X (X = suspension)
16 | CCNCCc1ccc(CN(CC)c2cc(OC)ccc2[C@@H]2CCc3cc(O)ccc3C2)cc1.Cl.Cl [Form A19] | X (X = suspension)
17 | CCNCCc1ccc(CN(CC)c2cc(OC)ccc2[C@@H]2CCc3cc(O)ccc3C2)cc1.Cl.Cl [Form A20] | S (S = solution)
18 | CCNCCc1ccc(CN(CC)c2cc(OC)ccc2[C@@H]2CCc3cc(O)ccc3C2)cc1.Cl.Cl [Form A22] | S (S = solution)
19 | CCNCCc1ccc(CN(CC)c2cc(OC)ccc2[C@@H]2CCc3cc(O)ccc3C2)cc1.Cl.Cl [Form A23] | X (X = suspension)
20 | CCNCCc1ccc(CN(CC)c2cc(OC)ccc2[C@@H]2CCc3cc(O)ccc3C2)cc1.Cl.Cl [Form A24] | X (X = suspension)

Same assay, conditions: 40 vol. solvent (solvent per sample ID)

Row | SMILES | Solubility observation at 40 vol.
21 | CCNCCc1ccc(CN(CC)c2cc(OC)ccc2[C@@H]2CCc3cc(O)ccc3C2)cc1.Cl.Cl [Form A13] | X (X = suspension)
22 | CCNCCc1ccc(CN(CC)c2cc(OC)ccc2[C@@H]2CCc3cc(O)ccc3C2)cc1.Cl.Cl [Form A14] | X (X = suspension)
23 | CCNCCc1ccc(CN(CC)c2cc(OC)ccc2[C@@H]2CCc3cc(O)ccc3C2)cc1.Cl.Cl [Form A15] | X (X = suspension)
24 | CCNCCc1ccc(CN(CC)c2cc(OC)ccc2[C@@H]2CCc3cc(O)ccc3C2)cc1.Cl.Cl [Form A17] | X (X = suspension)
25 | CCNCCc1ccc(CN(CC)c2cc(OC)ccc2[C@@H]2CCc3cc(O)ccc3C2)cc1.Cl.Cl [Form A19] | X (X = suspension)
26 | CCNCCc1ccc(CN(CC)c2cc(OC)ccc2[C@@H]2CCc3cc(O)ccc3C2)cc1.Cl.Cl [Form A23] | +/− (+/− = nearly dissolved)
27 | CCNCCc1ccc(CN(CC)c2cc(OC)ccc2[C@@H]2CCc3cc(O)ccc3C2)cc1.Cl.Cl [Form A24] | +/− (+/− = nearly dissolved)

Same assay, conditions: 50° C./RT cycles (8 hr per cycle) up to 5 days

Row | SMILES | Observation After 50/RT maturation
28 | CCNCCc1ccc(CN(CC)c2cc(OC)ccc2[C@@H]2CCc3cc(O)ccc3C2)cc1.Cl.Cl [Form A21] | S

Same assay, conditions: 60 vol. solvent (solvent per sample ID)

Row | SMILES | Solubility observation at 60 vol.
29 | CCNCCc1ccc(CN(CC)c2cc(OC)ccc2[C@@H]2CCc3cc(O)ccc3C2)cc1.Cl.Cl [Form A13] | X (X = suspension)
30 | CCNCCc1ccc(CN(CC)c2cc(OC)ccc2[C@@H]2CCc3cc(O)ccc3C2)cc1.Cl.Cl [Form A14] | X (X = suspension)
31 | CCNCCc1ccc(CN(CC)c2cc(OC)ccc2[C@@H]2CCc3cc(O)ccc3C2)cc1.Cl.Cl [Form A15] | X (X = suspension)
32 | CCNCCc1ccc(CN(CC)c2cc(OC)ccc2[C@@H]2CCc3cc(O)ccc3C2)cc1.Cl.Cl [Form A17] | X (X = suspension)
33 | CCNCCc1ccc(CN(CC)c2cc(OC)ccc2[C@@H]2CCc3cc(O)ccc3C2)cc1.Cl.Cl [Form A19] | X (X = suspension)
34 | CCNCCc1ccc(CN(CC)c2cc(OC)ccc2[C@@H]2CCc3cc(O)ccc3C2)cc1.Cl.Cl [Form A23] | S (S = solution)
35 | CCNCCc1ccc(CN(CC)c2cc(OC)ccc2[C@@H]2CCc3cc(O)ccc3C2)cc1.Cl.Cl [Form A24] | S (S = solution)

Same assay, conditions: clear solutions cooled 50° C. to 5° C. at 0.1° C./min

Row | SMILES | Observation after Cooled to 5° C.
36 | CCNCCc1ccc(CN(CC)c2cc(OC)ccc2[C@@H]2CCc3cc(O)ccc3C2)cc1.Cl.Cl [Form A12] | S
37 | CCNCCc1ccc(CN(CC)c2cc(OC)ccc2[C@@H]2CCc3cc(O)ccc3C2)cc1.Cl.Cl [Form A20] | Platelet
38 | CCNCCc1ccc(CN(CC)c2cc(OC)ccc2[C@@H]2CCc3cc(O)ccc3C2)cc1.Cl.Cl [Form A22] | Some
39 | CCNCCc1ccc(CN(CC)c2cc(OC)ccc2[C@@H]2CCc3cc(O)ccc3C2)cc1.Cl.Cl [Form A23] | S
40 | CCNCCc1ccc(CN(CC)c2cc(OC)ccc2[C@@H]2CCc3cc(O)ccc3C2)cc1.Cl.Cl [Form A24] | S

Same assay, conditions: slow evaporation at ambient conditions

Row | SMILES | Observation after Evaporation
41 | CCNCCc1ccc(CN(CC)c2cc(OC)ccc2[C@@H]2CCc3cc(O)ccc3C2)cc1.Cl.Cl [Form A12] | Solid
42 | CCNCCc1ccc(CN(CC)c2cc(OC)ccc2[C@@H]2CCc3cc(O)ccc3C2)cc1.Cl.Cl [Form A23] | Solids,
43 | CCNCCc1ccc(CN(CC)c2cc(OC)ccc2[C@@H]2CCc3cc(O)ccc3C2)cc1.Cl.Cl [Form A24] | Solids

Same assay, conditions: solid recovered after maturation, cooling or evaporation

Row | SMILES | XRPD of recovered solid (form)
44 | CCNCCc1ccc(CN(CC)c2cc(OC)ccc2[C@@H]2CCc3cc(O)ccc3C2)cc1.Cl.Cl [Form A12] | Form 3
45 | CCNCCc1ccc(CN(CC)c2cc(OC)ccc2[C@@H]2CCc3cc(O)ccc3C2)cc1.Cl.Cl [Form A13] | Form 1
46 | CCNCCc1ccc(CN(CC)c2cc(OC)ccc2[C@@H]2CCc3cc(O)ccc3C2)cc1.Cl.Cl [Form A14] | Form 1
47 | CCNCCc1ccc(CN(CC)c2cc(OC)ccc2[C@@H]2CCc3cc(O)ccc3C2)cc1.Cl.Cl [Form A15] | Form 1
48 | CCNCCc1ccc(CN(CC)c2cc(OC)ccc2[C@@H]2CCc3cc(O)ccc3C2)cc1.Cl.Cl [Form A17] | Form 1
49 | CCNCCc1ccc(CN(CC)c2cc(OC)ccc2[C@@H]2CCc3cc(O)ccc3C2)cc1.Cl.Cl [Form A19] | Form 1
50 | CCNCCc1ccc(CN(CC)c2cc(OC)ccc2[C@@H]2CCc3cc(O)ccc3C2)cc1.Cl.Cl [Form A20] | Pattern 3; also recorded: Form 3
51 | CCNCCc1ccc(CN(CC)c2cc(OC)ccc2[C@@H]2CCc3cc(O)ccc3C2)cc1.Cl.Cl [Form A22] | Form 3*
52 | CCNCCc1ccc(CN(CC)c2cc(OC)ccc2[C@@H]2CCc3cc(O)ccc3C2)cc1.Cl.Cl [Form A23] | Form 3
53 | CCNCCc1ccc(CN(CC)c2cc(OC)ccc2[C@@H]2CCc3cc(O)ccc3C2)cc1.Cl.Cl [Form A24] | Form 3

Assay: Solubility assessment and polymorph screen on amorphous RAD1901-2HCl
Format: physicochemical
Conditions: not given
Protocol: In a scale-up preparation of amorphous RAD1901-2HCl, RAD1901-2HCl (600 mg) was dissolved in water (20 vol., 12 mL) and filtered to remove any remaining solid particles. The solution was then aliquoted into 24 HPLC vials, frozen in a dry ice/acetone bath and the solvent removed by lyophilisation. Solids produced by lyophilization were used directly in solubility assessment and polymorph screens in Example 4.
Amorphous RAD1901-2HCl prepared as described in Example 3B was used directly in solubility assessment and polymorph screens (Table 15). XRPD patterns were further obtained for amorphous RAD1901-2HCl prepared using other solvents.
In the polymorph screen of the amorphous RAD1901-2HCl prepared as described in Example 3B, an aliquot of each sample was examined for its morphology under the microscope, both after maturing at 25° C., and after maturing at 50° C./RT. […] In some instances, the sample appeared to be a mixture of various polymorphic forms, e.g. Form 2 and Form 3 (FIGS. 18B-18C), similar to the mixture of Forms 2 and 3 in Sample 2 having an equilibrium between the two solid forms, depending on the prevailing RH.

Row | SMILES | Observation After maturation at 50° C.
54 | CCNCCc1ccc(CN(CC)c2cc(OC)ccc2[C@@H]2CCc3cc(O)ccc3C2)cc1.Cl.Cl [Form B15.] | Fine

Same assay, conditions: after maturation at 50° C./RT

Row | SMILES | XRPD post 50° C./RT (form)
55 | CCNCCc1ccc(CN(CC)c2cc(OC)ccc2[C@@H]2CCc3cc(O)ccc3C2)cc1.Cl.Cl [Form B15.] | Form 3

From patent publication US11643385B2, “Polymorphic forms of RAD1901-2HCl” (RADIUS PHARMACEUTICALS, INC., priority 2018, dated 2023)
